According to patent US20230002352A1, “SULFONAMIDE DERIVATIVES AS CTPS1 INHIBITORS” (Step Pharma S.A.S., priority 2019, published 2023):
pIC50: −log10 of the molar value.

Target: T1, human CTPS1 (Homo sapiens, UniProt P17812)
T1 construct: purchased Proteros biostructures GmbH
T1 sequence (P17812 1-591): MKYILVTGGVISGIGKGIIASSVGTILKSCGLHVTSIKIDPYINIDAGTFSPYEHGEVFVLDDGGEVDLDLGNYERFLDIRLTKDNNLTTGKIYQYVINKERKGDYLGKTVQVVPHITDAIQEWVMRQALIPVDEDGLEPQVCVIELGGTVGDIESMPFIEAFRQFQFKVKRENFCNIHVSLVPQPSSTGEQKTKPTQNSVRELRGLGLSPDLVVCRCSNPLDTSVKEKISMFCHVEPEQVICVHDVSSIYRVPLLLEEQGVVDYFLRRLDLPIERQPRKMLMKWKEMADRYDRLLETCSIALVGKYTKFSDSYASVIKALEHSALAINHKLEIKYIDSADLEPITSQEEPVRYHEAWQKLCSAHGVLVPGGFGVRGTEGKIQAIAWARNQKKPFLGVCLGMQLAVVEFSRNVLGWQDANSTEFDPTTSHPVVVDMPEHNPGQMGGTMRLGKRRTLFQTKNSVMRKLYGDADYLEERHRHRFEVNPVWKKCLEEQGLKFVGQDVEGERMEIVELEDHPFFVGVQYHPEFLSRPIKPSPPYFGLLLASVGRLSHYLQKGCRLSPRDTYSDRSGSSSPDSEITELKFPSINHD
Test: Human CTPS1 enzyme inhibition (ADP-Glo Max assay)
Format: biochemical
Details: Table 23; ADP-Glo Max assay; read-out: CTPS1 (Human CTPS1 Enzyme Inhibition data grouped by potency range, IC50)
Description: Biological Example 1—Human CTPS1 Enzyme Inhibition
The enzyme inhibitory activities of compounds invented against the target of interest were determined using the ADP-Glo™ Max assay (Promega, UK). Assays for human CTPS1 were performed in 1× assay buffer containing 50 mM Tris, 10 mM MgCl2, 0.01% Tween-20, pH to 8.0 accordingly. Finally, immediately before use, L-cysteine was added to the 1× assay buffer to a final concentration of 2 mM. All reagents are from Sigma-Aldrich unless specified otherwise. Human full length active C-terminal FLAG-Hiss-tag CTPS1 (UniProtKB-P17812, CTPS[1-591]-[…]) was obtained from Proteros biostructures GmbH.
3× human CTPS1 protein was prepared in 1× assay buffer to the final working protein concentration required for the reaction. A 2 uL volume per well of 3× human CTPS1 protein was mixed with 2 uL per well of 3× test compound (compound prepared in 1× assay buffer to an appropriate final 3× compound concentration respective to the concentration response curve designed for the compounds under test) for 10 minutes at 25° C. The enzymatic reaction was then initiated by addition of a 2 uL per well volume of a pre-mixed substrate mix (UltraPure ATP from ADP-Glo™ Max kit (0.31 mM), GTP (0.034 mM), UTP (0.48 mM) and L-glutamine (0.186 mM)) and the mixture was incubated for an appropriate amount of time within the determined linear phase of the reaction at 25° C. under sealed plate conditions with constant agitation at 500 revolutions per minute (rpm). ADP-Glo™ Max reagent was added for 60 minutes (6 μL per well) and subsequently ADP-Glo™ Max development reagent was added for 60 minutes (12 uL per well) prior to signal detection in a microplate reader (EnVision® Multilabel Reader, Perkin Elmer). Following each reagent addition over the course of the assay, assay plates were pulse centrifuged for 30 seconds at 500 rpm.
In all cases, the enzyme converts ATP to ADP and the ADP-Glo™ Max reagent subsequently depletes any remaining endogenous ATP in the reaction system. The ADP-Glo™ Max detection reagent converts the ADP that has been enzymatically produced back into ATP and using ATP as a substrate together with luciferin for the enzyme luciferase, light is generated which produces a detectable luminescence. […] The percentage inhibition produced by each concentration of compound was calculated using the equation shown below: […]
Percentage inhibition was then plotted against compound concentration, and the 50% inhibitory concentration (IC50) was determined from the resultant concentration-response curve.

Row | SMILES | pIC50
1 | CC(C)(C(=O)Nc1ccc(-c2cccc(C#N)c2)cc1)c1ccnc(NS(=O)(=O)C2CC2)n1 [Example P62] | 5.00 to 6.00
2 | CCOc1cccc(-c2ccc(NC(=O)C(C)(C)c3ccnc(NS(=O)(=O)C4CC4)n3)cc2)c1 [Example P63] | 4.70 to 5.00
3 | CC(C)(C(=O)Nc1ccc(-c2cncc(C(F)(F)F)n2)cc1)c1ccnc(NS(=O)(=O)C2CC2)n1 [Example P64] | ≥ 7.00
4 | CCOc1cncc(-c2ccc(NC(=O)C(C)(C)c3ccnc(NS(=O)(=O)C4CC4)n3)cc2)n1 [Example P65] | ≥ 7.00
5 | CC(C)(C(=O)Nc1ccc(-c2cncc(OC3CC3)n2)cc1)c1ccnc(NS(=O)(=O)C2CC2)n1 [Example P66] | 6.00 to 7.00
6 | CC(C)Oc1cncc(-c2ccc(NC(=O)C(C)(C)c3ccnc(NS(=O)(=O)C4CC4)n3)cc2)n1 [Example P67] | ≥ 7.00
7 | CCOc1cncc(-c2ccc(NC(=O)C(C)(C)c3ccnc(NS(=O)(=O)C4(C)CC4)n3)cc2)n1 [Example P69] | 6.00 to 7.00
8 | CC(C)(C(=O)Nc1ccc(-c2cnccn2)cc1)c1ccnc(NS(=O)(=O)C2CC2)n1 [Example P71] | 5.00 to 6.00
9 | CCOc1cncc(-c2ccc(NC(=O)C(C)(C)c3ccnc(NS(=O)(=O)CC)n3)c(F)c2)n1 [Example P72] | 6.00 to 7.00
10 | CCS(=O)(=O)Nc1nccc(C(C)(C)C(=O)Nc2ccc(-c3cncc(C(F)(F)F)n3)cc2)n1 [Example P73] | 6.00 to 7.00
11 | CCOc1cncc(-c2cnc(NC(=O)C(C)(C)c3ccnc(NS(C)(=O)=O)n3)c(F)c2)n1 [Example P75] | 6.00 to 7.00
12 | CC(C)Oc1cncc(-c2ccc(NC(=O)C(C)(C)c3ccnc(NS(C)(=O)=O)n3)c(F)c2)c1 [Example P77] | 5.00 to 6.00
13 | CC(C)Oc1cncc(-c2ccc(NC(=O)C(C)(C)c3ccnc(NS(C)(=O)=O)n3)c(F)c2)n1 [Example P78] | 6.00 to 7.00
14 | Cc1cc(-c2cncc(C(F)(F)F)n2)ccc1NC(=O)C(C)(C)c1ccnc(NS(C)(=O)=O)n1 [Example P79] | 6.00 to 7.00
15 | CC(C)(C(=O)Nc1ccc(-c2cncc(C(F)(F)F)n2)cc1)c1ccnc(NS(C)(=O)=O)n1 [Example P80] | 6.00 to 7.00
16 | CCOc1cncc(-c2ccc(NC(=O)C(C)(C)c3ccnc(NS(C)(=O)=O)n3)cc2)n1 [Example P81] | ≥ 7.00
17 | CCOc1cncc(-c2ccc(NC(=O)C(C)(C)c3ccnc(NS(=O)(=O)C(C)(C)C)n3)cc2)n1 [Example P82] | 5.00 to 6.00
18 | CC(C)c1cncc(-c2ccc(NC(=O)C(C)(C)c3ccnc(NS(=O)(=O)C4CC4)n3)nc2)n1 [Example P116, 2-(2-(Cyclopropanesulfonamido)pyrimidin-4-yl)-N-(5-(6-isopropylpyrazin-2-yl)pyridin-2-yl)-2-methylpropanamide] | 6.00 to 7.00
19 | CCOc1cncc(-c2ccc(NC(=O)C(F)(F)c3ccnc(NS(=O)(=O)C4CC4)n3)c(F)c2)n1 [Example P117] | ≥ 7.00
20 | C=C(C)c1cncc(-c2ccc(NC(=O)C(C)(C)c3ccnc(NS(=O)(=O)C4CC4)n3)nc2)n1 [Example P122, 2-(2-(cyclopropanesulfonamido)pyrimidin-4-yl)-2-methyl-N-(5-(6-(prop-1-en-2-yl)pyrazin-2-yl)pyridin-2-yl)propanamide] | 6.00 to 7.00
21 | CCOc1cncc(-c2ccc(NC(=O)C(C)(C)c3cc(C)nc(NS(=O)(=O)C4CC4)n3)nc2)n1 [Example P123] | 6.00 to 7.00
22 | CCOc1cncc(-c2ccc(NC(=O)C(C)(C)c3cc(C(F)(F)F)nc(NS(=O)(=O)C4CC4)n3)nc2)n1 [Example P124] | 6.00 to 7.00
23 | CCOc1cncc(-c2ccc(NC(=O)C(C)(C)c3ccnc(NS(=O)(=O)C4CC4)n3)cn2)n1 [Example P126] | ≥ 7.00
24 | CCOc1cncc(-c2ccc(NC(=O)C(C)(C)c3cc(C)nc(NS(=O)(=O)C4CC4)n3)c(F)c2)n1 [Example P129] | 6.00 to 7.00
25 | CCOc1cncc(-c2ccc(NC(=O)C(C)(C)c3cc(C(F)(F)F)nc(NS(=O)(=O)C4CC4)n3)c(F)c2)n1 [Example P130] | 6.00 to 7.00
26 | C=C(C)c1cncc(-c2ccc(NC(=O)C(C)(C)c3ccnc(NS(=O)(=O)C4CC4)n3)cc2)n1 [Example P131] | 6.00 to 7.00

Row | SMILES | pIC50
27 | CN(C)c1cncc(-c2ccc(NC(=O)C(C)(C)c3ccnc(NS(=O)(=O)C4CC4)n3)cc2)n1 [Example P133] | 5.00 to 6.00
28 | CCOc1cncc(-c2ccc(NC(=O)C(C)(C)c3cc(C)nc(NS(=O)(=O)C4CC4)n3)cc2)n1 [Example P134] | 6.00 to 7.00
29 | CCOc1cncc(-c2ccc(NC(=O)C(C)(C)c3cc(C(F)(F)F)nc(NS(=O)(=O)C4CC4)n3)cc2)n1 [Example P135] | 6.00 to 7.00
30 | CCOc1cncc(-c2ccc(NC(=O)C3(c4ccnc(NS(=O)(=O)C5CC5)n4)CCOCC3)cc2)n1 [Example P137] | ≥ 7.00
31 | CCOc1cncc(-c2ccc(NC(=O)C3(c4ccnc(NS(C)(=O)=O)n4)CCNCC3)nc2)n1 [Example P138] | 6.00 to 7.00
32 | CCOc1cncc(-c2ccc(NC(=O)C3(c4ccnc(NS(=O)(=O)C5CC5)n4)CCN(C(=O)OC(C)(C)C)CC3)nc2)n1 [Example P139] | 6.00 to 7.00
33 | CCOc1cncc(-c2ccc(NC(=O)C3(c4ccnc(NS(=O)(=O)C5CC5)n4)CCNCC3)nc2)n1 [Example P140] | 6.00 to 7.00
34 | CCOc1cncc(-c2ccc(NC(=O)C3(c4ccnc(NS(=O)(=O)C5CC5)n4)CN(C(=O)OC(C)(C)C)C3)nc2)n1 [Example P141] | 6.00 to 7.00
35 | CCOc1cncc(-c2ccc(NC(=O)C3(c4ccnc(NS(C)(=O)=O)n4)CCN(C(=O)OC(C)(C)C)CC3)nc2)n1 [Example P142] | 6.00 to 7.00
36 | CCOc1cncc(-c2cnc(NC(=O)C(CCOC)c3ccnc(NS(=O)(=O)C4CC4)n3)c(F)c2)n1 (stereo not drawn) [Example P144] | ≥ 7.00
37 | CCOc1cncc(-c2ccc(NC(=O)C(C)(CCOC)c3ccnc(NS(C)(=O)=O)n3)nc2)n1 (stereo not drawn) [Example P147] | 6.00 to 7.00
38 | CCC(C(=O)Nc1ccc(-c2cncc(Cl)c2)cn1)c1ccnc(NS(=O)(=O)C2CC2)n1 (stereo not drawn) [Example P148] | ≥ 7.00
39 | CCC(F)(C(=O)Nc1ccc(-c2cncc(Cl)c2)cn1)c1ccnc(NS(=O)(=O)C2CC2)n1 (stereo not drawn) [Example P149] | ≥ 7.00
40 | CCC(F)(C(=O)Nc1ccc(-c2cncc(C3CC3)n2)cn1)c1ccnc(NS(=O)(=O)C2CC2)n1 (stereo not drawn) [Example P150] | ≥ 7.00
41 | CCOc1cncc(-c2ccc(NC(=O)C(F)(c3ccnc(NS(=O)(=O)C4CC4)n3)C(C)C)nc2)n1 (stereo not drawn) [Example P152] | ≥ 7.00
42 | CCOc1cncc(-c2ccc(NC(=O)C(c3ccnc(NS(=O)(=O)C4CC4)n3)C(C)C)c(F)c2)n1 (stereo not drawn) [Example P153] | ≥ 7.00
43 | CCOc1cncc(-c2ccc(NC(=O)C(c3ccnc(NS(=O)(=O)C4CC4)n3)C(C)C)nc2)n1 (stereo not drawn) [Example P154] | ≥ 7.00
44 | CCC(C(=O)Nc1ccc(-c2cncc(C3CC3)n2)cn1)c1ccnc(NS(=O)(=O)C2CC2)n1 (stereo not drawn) [Example P156] | ≥ 7.00
45 | CCC(C(=O)Nc1ccc(-c2cncc(OCC(F)(F)F)n2)cn1)c1ccnc(NS(=O)(=O)C2CC2)n1 (stereo not drawn) [Example P157] | ≥ 7.00
46 | CCC(C(=O)Nc1ccc(-c2cncc(C3CC3)n2)cc1F)c1ccnc(NS(=O)(=O)C2CC2)n1 (stereo not drawn) [Example P160] | ≥ 7.00
47 | O=C(Cc1cccc(NS(=O)(=O)C2CC2)n1)Nc1ccc(-c2cncc(Cl)c2)cc1 [Example P167] | 6.00 to 7.00
48 | N#Cc1cncc(-c2ccc(NC(=O)Cc3cccc(NS(=O)(=O)C4CC4)n3)cc2)c1 [Example P168] | 6.00 to 7.00
49 | O=C(Cc1cccc(NS(=O)(=O)C2CC2)n1)Nc1ccc(-c2cncc(F)c2)cc1 [Example P169] | 6.00 to 7.00
50 | COc1cncc(-c2ccc(NC(=O)Cc3cccc(NS(=O)(=O)C4CC4)n3)cc2)c1 [Example P170] | 6.00 to 7.00
51 | O=C(Cc1cccc(NS(=O)(=O)C2CC2)n1)Nc1ccc(-c2cccnc2)cc1 [Example P171] | 5.00 to 6.00
